Test results: ChEMBL document CHEMBL3871295, “N-Propargylpiperidines with naphthalene-2-carboxamide or naphthalene-2-sulfonamide moieties: Potential multifunctional anti-Alzheimer's agents” (Bioorg Med Chem, 2017)
Activity calls are given as the source filed them. The rule behind the calls is not given here.

Key:
[1] = molecular target: T1, Amine oxidase [flavin-containing] B (Homo sapiens, UniProt P27338); test: biochemical; type: cell-based
T1 sequence (P27338 whole entry): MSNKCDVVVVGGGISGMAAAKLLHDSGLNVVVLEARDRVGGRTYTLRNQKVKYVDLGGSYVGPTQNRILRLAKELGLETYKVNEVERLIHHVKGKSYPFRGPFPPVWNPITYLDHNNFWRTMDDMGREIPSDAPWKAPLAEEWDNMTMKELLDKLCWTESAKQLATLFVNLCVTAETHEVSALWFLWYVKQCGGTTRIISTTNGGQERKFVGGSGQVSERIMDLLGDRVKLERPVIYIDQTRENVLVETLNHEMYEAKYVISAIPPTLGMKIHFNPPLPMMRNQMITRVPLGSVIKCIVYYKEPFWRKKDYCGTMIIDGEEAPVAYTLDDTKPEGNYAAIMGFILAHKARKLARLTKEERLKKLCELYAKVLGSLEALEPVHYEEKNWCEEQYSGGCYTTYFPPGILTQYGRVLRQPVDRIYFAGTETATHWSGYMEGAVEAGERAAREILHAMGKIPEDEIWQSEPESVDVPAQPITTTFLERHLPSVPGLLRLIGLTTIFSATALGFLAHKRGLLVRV

[2] = species on record: Homo sapiens; test: Selectivity ratio of IC50 for human recombinant microsomal MAO-A expressed in baculovirus-infected insect cells to IC50 for human recombinant microsomal MAO-B expressed in baculovirus-infected insect cells
[3] = molecular target: Amyloid-beta precursor protein (Homo sapiens) (UniProt P05067); test: Inhibition of HFIP-pretreated recombinant human amyloid beta (1 to 42) self-induced aggregation at 10 uM measured after 20 hrs for every 300 secs by thioflavin-T based fluorometric assay relative to control
Sequence of Amyloid-beta precursor protein (Homo sapiens) (P05067 whole entry): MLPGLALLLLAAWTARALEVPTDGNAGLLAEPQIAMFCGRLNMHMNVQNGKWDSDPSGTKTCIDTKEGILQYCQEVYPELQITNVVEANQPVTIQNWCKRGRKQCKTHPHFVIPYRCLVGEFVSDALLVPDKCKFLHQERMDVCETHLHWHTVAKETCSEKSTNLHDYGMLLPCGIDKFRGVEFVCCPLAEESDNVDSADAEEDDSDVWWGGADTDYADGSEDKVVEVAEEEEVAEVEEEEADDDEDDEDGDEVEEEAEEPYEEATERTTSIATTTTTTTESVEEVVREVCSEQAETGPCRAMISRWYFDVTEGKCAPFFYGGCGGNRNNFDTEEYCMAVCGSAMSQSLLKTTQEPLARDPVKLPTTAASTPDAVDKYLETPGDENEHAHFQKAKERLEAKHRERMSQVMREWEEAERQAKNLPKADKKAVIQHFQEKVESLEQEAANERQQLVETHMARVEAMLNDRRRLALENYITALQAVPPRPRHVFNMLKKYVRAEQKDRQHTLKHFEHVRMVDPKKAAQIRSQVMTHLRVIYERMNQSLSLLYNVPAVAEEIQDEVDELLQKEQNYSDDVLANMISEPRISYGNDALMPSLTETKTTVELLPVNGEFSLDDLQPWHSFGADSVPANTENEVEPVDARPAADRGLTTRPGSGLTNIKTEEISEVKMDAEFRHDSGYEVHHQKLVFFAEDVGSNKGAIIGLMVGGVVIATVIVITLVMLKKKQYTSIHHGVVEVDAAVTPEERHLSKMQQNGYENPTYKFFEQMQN

[4] = molecular target: Cholinesterase (Homo sapiens, UniProt P06276)
Sequence of Cholinesterase (P06276 whole entry): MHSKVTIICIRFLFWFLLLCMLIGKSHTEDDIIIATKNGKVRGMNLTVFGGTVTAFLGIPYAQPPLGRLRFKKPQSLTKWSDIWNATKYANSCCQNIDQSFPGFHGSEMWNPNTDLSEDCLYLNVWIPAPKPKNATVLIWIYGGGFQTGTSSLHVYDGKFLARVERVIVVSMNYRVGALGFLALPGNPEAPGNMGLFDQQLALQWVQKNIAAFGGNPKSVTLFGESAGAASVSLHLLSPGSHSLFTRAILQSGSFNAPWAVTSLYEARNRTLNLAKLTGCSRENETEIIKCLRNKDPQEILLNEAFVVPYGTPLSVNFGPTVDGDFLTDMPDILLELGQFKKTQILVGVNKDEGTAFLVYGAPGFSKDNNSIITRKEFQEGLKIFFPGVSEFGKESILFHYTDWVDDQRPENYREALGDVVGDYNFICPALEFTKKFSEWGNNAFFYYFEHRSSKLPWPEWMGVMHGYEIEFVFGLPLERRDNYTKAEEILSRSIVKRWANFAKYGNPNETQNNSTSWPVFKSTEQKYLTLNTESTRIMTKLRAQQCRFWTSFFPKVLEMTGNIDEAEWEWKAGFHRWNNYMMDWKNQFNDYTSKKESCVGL

[5] = molecular target: T2, Acetylcholinesterase (Mus musculus, UniProt P21836)
T2 sequence (P21836 whole entry): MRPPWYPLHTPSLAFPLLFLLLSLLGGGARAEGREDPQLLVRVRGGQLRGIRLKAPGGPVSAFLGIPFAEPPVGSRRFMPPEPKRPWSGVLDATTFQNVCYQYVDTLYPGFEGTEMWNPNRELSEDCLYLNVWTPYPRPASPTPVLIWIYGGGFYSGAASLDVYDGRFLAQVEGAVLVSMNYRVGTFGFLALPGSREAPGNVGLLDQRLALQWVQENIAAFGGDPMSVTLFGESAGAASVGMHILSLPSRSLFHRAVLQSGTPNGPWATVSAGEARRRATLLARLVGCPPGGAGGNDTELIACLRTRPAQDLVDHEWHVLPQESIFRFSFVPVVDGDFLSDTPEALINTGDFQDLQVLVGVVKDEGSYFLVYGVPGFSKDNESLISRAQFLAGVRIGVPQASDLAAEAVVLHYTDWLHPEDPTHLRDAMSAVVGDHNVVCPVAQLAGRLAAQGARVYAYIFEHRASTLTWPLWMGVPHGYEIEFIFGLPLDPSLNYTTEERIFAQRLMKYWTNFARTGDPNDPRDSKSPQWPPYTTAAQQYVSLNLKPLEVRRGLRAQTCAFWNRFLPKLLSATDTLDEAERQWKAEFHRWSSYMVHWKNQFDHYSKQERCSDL

[6] = molecular target: T3, Amine oxidase [flavin-containing] A (Homo sapiens, UniProt P21397); test: biochemical
T3 sequence (P21397 whole entry): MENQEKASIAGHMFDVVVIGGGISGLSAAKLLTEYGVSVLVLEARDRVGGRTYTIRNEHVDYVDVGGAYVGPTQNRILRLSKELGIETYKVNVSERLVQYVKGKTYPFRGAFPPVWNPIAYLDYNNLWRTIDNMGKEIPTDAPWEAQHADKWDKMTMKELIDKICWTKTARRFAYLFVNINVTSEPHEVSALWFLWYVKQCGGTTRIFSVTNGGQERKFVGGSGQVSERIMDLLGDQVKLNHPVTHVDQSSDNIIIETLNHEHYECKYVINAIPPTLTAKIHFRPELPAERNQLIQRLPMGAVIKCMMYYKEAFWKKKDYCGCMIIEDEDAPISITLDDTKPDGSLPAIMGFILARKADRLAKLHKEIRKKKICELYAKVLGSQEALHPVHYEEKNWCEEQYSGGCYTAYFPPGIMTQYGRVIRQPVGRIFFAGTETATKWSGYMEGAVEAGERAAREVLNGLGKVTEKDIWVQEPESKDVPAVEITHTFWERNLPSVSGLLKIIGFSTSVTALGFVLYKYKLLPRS

[7] = PAMPA, pH 7.4
[8] = Cytotoxicity against human SH-SY5Y cells measured after 48 hrs by MTS assay; type: toxicity, cell-based; conditions: read-out: LD50
[9] = Cytotoxicity against human SH-SY5Y cells at […] measured after 48 hrs by MTS assay; type: toxicity, cell-based
[10] = tested on: SH-SY5Y; test: Neuroprotective activity against amyloid beta (1 to 42) induced cell death in human SH-SY5Y cells assessed as cell viability at […] measured after 48 hrs by MTS assay; type: functional, cell-based
[11] = tested on: BChE; test: in vitro; conditions: human, SH-SY5Y cells
[12] = molecular target: T1, Amine oxidase [flavin-containing] B; test: Irreversible inhibition of human recombinant microsomal MAO-B expressed in baculovirus-infected insect cells at 10 times IC50 preincubated for 15 mins followed by dilution to […] and subsequent addition of p-tyramine hydrochloride substrate measured for 30 mins by amplex red assay relative to control; conditions: 0.5 h
[13] = molecular target: T1, Amine oxidase [flavin-containing] B; test: Time-dependent inhibition of human recombinant microsomal MAO-B expressed in baculovirus-infected insect cells preincubated for 5 to 30 mins by IC50 shift assay
[14] = Cytotoxicity against human SH-SY5Y cells at 5 uM measured after 48 hrs by MTS assay; type: toxicity, cell-based
[15] = tested on: MAO-B; test: Selectivity index, ratio of LD50 for cytotoxicity against human SH-SY5Y cells to IC50 for human recombinant microsomal MAO-B expressed in baculovirus-infected insect cells; type: toxicity; conditions: read-out: Ratio LD50/IC50
[16] = tested on: SH-SY5Y; test: Neuroprotective activity against amyloid beta (1 to 42) induced cell death in human SH-SY5Y cells assessed as cell viability at 5 uM measured after 48 hrs by MTS assay; type: functional, cell-based

| Structure (SMILES) | IC50 [1] [µM] | Ratio IC50 [2] | inhibition [3] [%] | IC50 [4] [µM] | IC50 [5] [µM] | IC50 [6] [µM] | logPeff [7] | CC50 at 48 h [8] [µM] | Activity [9] | Activity [10] | selectivity ratio [11] | inhibition (INH) [12] [%] | TDI [13] | Activity [14] | selectivity ratio [15] | Activity [16] |
| --- | --- | --- | --- | --- | --- | --- | --- | --- | --- | --- | --- | --- | --- | --- | --- | --- |
| C#CCN1CCCC(CNC(=O)c2ccc3ccccc3c2)C1 (centres undefined) | 59.3 | > 1.69 | < 10 | 23.4 | > 100 | > 100 | – | – | – | – | – | – | – | – | – | – |
| C#CCN1CCC(CN(CCOC)S(=O)(=O)c2ccc3ccccc3c2)CC1 | > 100 | 1 | < 10 | 0.384 | > 100 | > 100 | – | – | – | – | – | – | – | – | – | – |
| C#CCN1CCCC(CN(CCOC)S(=O)(=O)c2ccc3ccccc3c2)C1 (centres undefined) | > 100 | 1 | < 10 | 0.137 | > 100 | > 100 | – | – | – | – | – | – | – | – | – | – |
| CC(=O)[C@H]1CC[C@H]2[C@@H]3CCC4=CC(=O)CC[C@]4(C)[C@H]3CC[C@]12C [PROGESTERONE] | – | – | – | – | – | – | -4 | – | – | – | – | – | – | – | – | – |
| C#CCN1CCCC(CN(CCOC)C(=O)c2ccc3ccccc3c2)C1 (centres undefined) | > 100 | 1 | < 10 | 3.31 | > 100 | > 100 | – | – | – | – | – | – | – | – | – | – |
| C#CCN1CCCC(CN(CCCOC)C(=O)c2ccc3ccccc3c2)C1 (centres undefined) | > 100 | 1 | < 10 | 8.64 | > 100 | > 100 | – | – | – | – | – | – | – | – | – | – |
| C#CCN1CCC(CNC(=O)c2ccc3ccccc3c2)CC1 | 72.6 | > 1.38 | < 10 | 54.4 | > 100 | > 100 | – | – | – | – | – | – | – | – | – | – |
| C#CCN1CCCC(CN(CCCOC)S(=O)(=O)c2ccc3ccccc3c2)C1 (centres undefined) | > 100 | 1 | < 10 | 0.127 | > 100 | > 100 | – | 48.1 | Non-Toxic | Active | 375 | – | – | – | – | – |
| C#CCN1CCC(CN(CCCOC)C(=O)c2ccc3ccccc3c2)CC1 | > 100 | 1 | < 10 | 4.59 | > 100 | > 100 | – | – | – | – | – | – | – | – | – | – |
| C#CCN1CCC(CN(CCOC)C(=O)c2ccc3ccccc3c2)CC1 | > 100 | 1 | 23.4 | 4.04 | > 100 | > 100 | – | – | – | – | – | – | – | – | – | – |
| C#CCN1CCCC(CNS(=O)(=O)c2ccc3ccccc3c2)C1 (centres undefined) | > 100 | 1 | < 10 | 1.22 | > 100 | > 100 | – | – | – | – | – | – | – | – | – | – |
| C#CCN1CCC(CN(CCCOC)S(=O)(=O)c2ccc3ccccc3c2)CC1 | > 100 | 1 | < 10 | 0.281 | > 100 | > 100 | – | – | – | – | – | – | – | – | – | – |
| C#CCN1CCC(CNS(=O)(=O)c2ccc3ccccc3c2)CC1 | 53.9 | > 1.86 | < 10 | 2.6 | > 100 | > 100 | – | 242 | – | – | 90 | > 70 | Active | Non-Toxic | 4 | Active |
